Measured values from patent US7914776B2, “Solid dispersions of opioid antagonists” (Adolor Corporation, priority 2005, dated 2011).
Entries after “also recorded” stand apart in the source; their conditions may differ. Where two headings read alike, the source gives them in different places.

Key:
[1] = Moisture sorption analysis; format: physicochemical; conditions: for Moisture Sorption: weight lost upon desorption: between 95% and 5% RH; for XRPD after Moisture Sorption: solid remaining after moisture sorption analysis
[2] = format: physicochemical
Protocol: Amorphous samples were exposed to ambient, 53%, and 97% relative humidities at ambient temperature (about 10° C. to about 30° C.). The samples were also exposed to 75% relative humidity at 40° C. The samples were stressed for up to 60 days. Samples were taken periodically throughout the study and analyzed by x-ray powder diffraction (XRPD) for presence of crystallinity.
Relative humidity stress studies were performed to assess the stability of amorphous alvimopan and solid dispersions. Studies were performed at ambient, 53%, and 97% relative humidity at ambient temperature. Ambient relative humidity and temperature was measured as approximately 24% and 22° C. Samples were also stressed at 75% relative humidity at 40° C. Samples were analyzed by XRPD for the presence of crystallinity.

[3] = listed as Amorphous [[2(S)-[[4(R)-(3-hydroxyphenyl)-3(R),4-dimethyl-piperidinyl]methyl]-1-
[4] = 53% Relative Humidity and Ambient Temperature, 7 days stressed
[5] = 53% Relative Humidity and Ambient Temperature, 17 days stressed
[6] = 53% Relative Humidity and Ambient Temperature, 30 days stressed
[7] = 53% Relative Humidity and Ambient Temperature, 60 days stressed
[8] = 75% Relative Humidity and 40° C., 7 days stressed
[9] = 97% Relative Humidity and Ambient Temperature, 7 days stressed
[10] = ambient conditions (approximately 24% relative humidity and 22° C.), 7 days stressed
[11] = ambient conditions (approximately 24% relative humidity and 22° C.), 17 days stressed
[12] = ambient conditions (approximately 24% relative humidity and 22° C.), 30 days stressed
[13] = ambient conditions (approximately 24% relative humidity and 22° C.), 60 days stressed
[14] = listed as Amorphous [[2(S)-[[4(R)-(3-hydroxyphenyl)-3(R),4-dimethyl-piperidinyl]methyl]-1-, sodium salt
[15] = ambient conditions (approximately 24% relative humidity and 22° C.), 43 days stressed
[16] = listed as Amorphous Alvimopan Prepared by Rotary Evaporation
[17] = listed as rotary evaporated sample

| SMILES | Stability conclusion of the stress studies [2] | XRPD Result [2, 4] | XRPD Result [2, 5] | XRPD Result [2, 6] | XRPD Result [2, 7] | XRPD Result [2, 8] | Observation [2, 9] | XRPD Result [2, 9] | XRPD Result [2, 10] | XRPD Result [2, 11] | XRPD Result [2, 12] | XRPD Result [2, 13] | XRPD after Moisture Sorption [1, 14] | Observation [2, 12] | also measured |
| --- | --- | --- | --- | --- | --- | --- | --- | --- | --- | --- | --- | --- | --- | --- | --- |
| C[C@H]1CN(C[C@H](Cc2ccccc2)C(=O)NCC(=O)O)CC[C@@]1(C)c1cccc(O)c1 [lyophilized; 100° C. vac oven, [[2(S)-[[4(R)-(3-hydroxyphenyl)-3(R),4-dimethyl-piperidinyl]methyl]-1-oxo-3-phenylpropyl]amino]acetic acid] | stable at 75% relative humidity and 40 °C | amorphous | amorphous | amorphous | amorphous | amorphous | off-white solids; some | Form A | amorphous | amorphous | amorphous | amorphous | – | – | Moisture Sorption: weight gain between 5% and 95% RH [1, 3]: 13.0% weight gain between 5% and 95% RH; Moisture Sorption: weight gain between 5% and 95% RH ([1]; listed as lyophilized sample): ~13%; Moisture Sorption: weight lost upon desorption [1, 3]: 10.8% weight lost upon desorption; Moisture Sorption: lost upon equilibration at 5% RH [1, 3]: 0.2% lost upon equilibration at 5% RH; XRPD after Moisture Sorption [1, 3]: amorphous; XRPD after Moisture Sorption ([1]; listed as lyophilized sample): remained amorphous; Outcome of stress ([2]; 75% RH and 40° C., listed as amorphous alvimopan sample prepared by lyophilization): Crystallization was not observed; XRPD Result ([2]; 75% Relative Humidity and 40° C., 17 days stressed): amorphous; XRPD Result ([2]; 75% Relative Humidity and 40° C., 30 days stressed): amorphous; XRPD Result ([2]; 75% Relative Humidity and 40° C., 60 days stressed): amorphous |
| C[C@H]1CN(C[C@H](Cc2ccccc2)C(=O)NCC(=O)[O-])CC[C@@]1(C)c1cccc(O)c1.[Na+] [2:1 sodium carbonate attempt; lyophilized; 100° C. vac oven] [[[2(S)-[[4(R)-(3-hydroxyphenyl)-3(R),4-dimethyl-piperidinyl]methyl]-1-oxo-3-phenylpropyl]amino]acetic acid sodium salt] | – | – | – | – | – | – | – | – | – | – | – | – | deliquescence of the material; also recorded: sample deliquesced | – | Moisture Sorption: lost upon equilibration at 5% RH [1, 14]: 0.1% lost upon equilibration at 5% RH; XRPD Result ([2]; 53% Relative Humidity and Ambient Temperature, 13 days stressed): amorphous; XRPD Result ([2]; 53% Relative Humidity and Ambient Temperature, 43 days stressed): amorphous; Observation ([2]; 75% Relative Humidity and 40° C., 3 days stressed, sodium salt): deliquescence;; Outcome of stress ([2]; 97% relative humidity and ambient temperature, listed as 2:1 amorphous [[2(S)-[[4(R)-(3-hydroxyphenyl)-3(R),4-dimethyl-piperidinyl]methyl, sodium salt): deliquesced within three days of exposure; Observation ([2]; ambient conditions (approximately 24% relative humidity and 22° C.), 7 days stressed, sodium salt): off-white, yellow; XRPD Result ([2]; ambient conditions (approximately 24% relative humidity and 22° C.), 13 days stressed): amorphous + peak; XRPD Result ([2]; ambient conditions (approximately 24% relative humidity and 22° C.), 30 days stressed, sodium salt): amorphous + peak;; Observation [2, 15]: white and yellow; XRPD Result [2, 15]: amorphous + peak |
| C[C@H]1CN(C[C@H](Cc2ccccc2)C(=O)NCC(=O)O)CC[C@@]1(C)c1cccc(O)c1 [ethanol roto evap at 30° C.; 100° C. vac oven] [[[2(S)-[[4(R)-(3-hydroxyphenyl)-3(R),4-dimethyl-piperidinyl]methyl]-1-oxo-3-phenylpropyl]amino]acetic acid] | showed crystallization under this same stress condition | amorphous | amorphous | amorphous | amorphous | PC; Form A | white solids; some | Form A | amorphous | amorphous | amorphous | amorphous | – | white solids, flakes; | Moisture Sorption: weight gain between 5% and 95% RH [1, 16]: 13.8% weight gain between 5% and 95% RH; Moisture Sorption: weight gain between 5% and 95% RH [1, 17]: ~13%; Moisture Sorption: weight lost upon desorption [1, 16]: 12.2% weight lost upon desorption; Moisture Sorption: lost upon equilibration at 5% RH [1, 16]: 0.6% lost upon equilibration at 5% RH; XRPD after Moisture Sorption [1, 16]: low crystalline; amorphous, Form A, or Form B; XRPD after Moisture Sorption [1, 17]: crystallized to low crystalline material; Observation [2, 7]: white solids,; Outcome of stress ([2]; 75% RH and 40° C., listed as Amorphous [[2(S)-[[4(R)-(3-hydroxyphenyl)-3(R),4-dimethyl-piperidinyl]methyl]-1-): crystallized to alvimopan Form A; Observation [2, 8]: white solids; |
| C[C@H]1CN(C[C@H](Cc2ccccc2)C(=O)NCC(=O)[O-])CC[C@@]1(C)c1cccc(O)c1.[Na+] [[[2(S)-[[4(R)-(3-hydroxyphenyl)-3(R),4-dimethyl-piperidinyl]methyl]-1-oxo-3-phenylpropyl]amino]acetic acid sodium salt] | – | amorphous + peak | amorphous + peak | amorphous + peak | amorphous + peak | – | white solids; slight | Form A | amorphous + peak | amorphous + peak | amorphous + peak | – | peak + amorphous | off-white, yellow | Moisture Sorption: lost upon equilibration at 5% RH [1]: 2.8% lost upon equilibration at 5% RH; Outcome of stress ([2]; 75% RH and 40° C.): deliquesced after three days of exposure; Outcome of stress ([2]; 97% relative humidity and ambient temperature): likely crystallized to Form A; Observation [2, 11]: off-white, yellow |
